The subject of test [1] is HCV replicon (Renilla luciferase reporter) in HUH-7 cells. The test can be described thus: HCV replicon luciferase reporter assay. It counts as cell-based. The following applies: Huh-7, read-out: EC50 in the replicon Luciferase assay. The source says:
An HCV replicon whole cell system was established as described by Lohmann V, Korner F, Koch J, Herian U, Theilmann L, Bartenschlager R., Science 285(5424): 110-3 (1999). This system enabled us to evaluate the effects of our HCV Protease compounds on HCV RNA replication. Briefly, using the HCV strain 1b sequence described in the Lohmann paper (Assession number: AJ238799), an HCV cDNA was synthesized by Operon Technologies, Inc. (Alameda, Calif.), and the full-length replicon was then assembled in plasmid pGem9zf(+) (Promega, Madison, Wis.) using standard molecular biology techniques. The replicon consists of (i) the HCV 5′ UTR fused to the first 12 amino acids of the capsid protein, (ii) the neomycin phosphotransferase gene (neo), (iii) the IRES from encephalomyocarditis virus (EMCV), and (iv) HCV NS3 to NS5B genes and the HCV 3′ UTR. […]
As a secondary assay, EC50 determinations from the replicon FRET assay were confirmed in a replicon luciferase reporter assay. […] Following 4 days in a 37° C./5% CO2 incubator, cells were analyzed for Renilla Luciferase activity using the Promega Dual-Glo Luciferase Assay System. […] Plates were read on a Packard TopCount NXT using a luminescence program.
The percentage inhibition was calculated using the formula below: […]
The values were graphed and analyzed using XLfit to obtain the EC50 value.

The target of test [2] is T1, human liver cathepsin B (Homo sapiens, UniProt P07858).
T1 construct: purchased Sigma, EMDbiosciences; host or cells: human liver
The test can be described thus: Specificity assay, cathepsin B. In kind it is biochemical. As to conditions: read-out: Cathepsin B activity in the specificity assays. As to the method:
The specificities of compounds of the present disclosure were determined against a variety of serine proteases: human neutrophil elastase (HNE), porcine pancreatic elastase (PPE) and human pancreatic chymotrypsin and one cysteine protease: human liver cathepsin B. In all cases a 96-well plate format protocol using a fluorometric Amino-Methyl-Coumarin (AMC) substrate specific for each enzyme was used as described previously (PCT Patent Application No. WO 00/09543) with some modifications to the serine protease assays. All enzymes were purchased from Sigma, EMDbiosciences while the substrates were from Bachem, Sigma and EMDbiosciences.
Compound concentrations varied from 100 to 0.4 μM depending on their potency. The enzyme assays were each initiated by addition of substrate to enzyme-inhibitor pre-incubated for 10 min at room temperature and hydrolysis to 15% conversion as measured on cytofluor.
100 mM NaOAC (Sodium Acetate) pH 5.5, 3% DMSO, 1 mM TCEP (Tris(2-carboxyethyl)phosphine hydrochloride), 5 nM Cathepsin B (enzyme stock activated in buffer containing 20 mM TCEP before use), and 2 μM Z-FR-AMC diluted in H2O.
The percentage of inhibition was calculated using the formula: [1−((UVinh−UVblank)/(UVctl−UVblank))]×100
A non-linear curve fit was applied to the inhibition-concentration data, and the 50% effective concentration (IC50) was calculated by the use of Excel XLfit software.

For orientation: EC50 means the concentration needed to bring the measured effect to its halfway point.

`C=C[C@@H]1C[C@]1(NC(=O)[C@@H]1C[C@@](O)(c2ccc(-c3ccccc3)cc2)CN1C(=O)[C@@H](NC(=O)OC(C)(C)C)C(C)(C)C)C(=O)NS(=O)(=O)C1CC1` [Compound 3]: in test [1], the EC50 stood at 1.4 nM. In addition, the IC50 in test [2] is over 100000 nM.

Source of the values: patent publication US7888464B2, “Hepatitis C virus inhibitors” (Bristol-Myers Squibb Company, priority 2006, dated 2011).
